Consider four compounds from ChEMBL document CHEMBL1121977, “alpha 2 adrenoceptors: classification, localization, mechanisms, and targets for drugs” (J Med Chem, 1982).

What is called Ki is a measure of affinity in units of concentration, obtained from inhibition or displacement. A low value points to tighter binding.

Each structure is given as a SMILES string.

This assay has as its target T1, Adrenergic receptor alpha-2 (Rattus norvegicus, UniProt P22086+P19328+P22909).
T1 sequence (P22086 whole entry): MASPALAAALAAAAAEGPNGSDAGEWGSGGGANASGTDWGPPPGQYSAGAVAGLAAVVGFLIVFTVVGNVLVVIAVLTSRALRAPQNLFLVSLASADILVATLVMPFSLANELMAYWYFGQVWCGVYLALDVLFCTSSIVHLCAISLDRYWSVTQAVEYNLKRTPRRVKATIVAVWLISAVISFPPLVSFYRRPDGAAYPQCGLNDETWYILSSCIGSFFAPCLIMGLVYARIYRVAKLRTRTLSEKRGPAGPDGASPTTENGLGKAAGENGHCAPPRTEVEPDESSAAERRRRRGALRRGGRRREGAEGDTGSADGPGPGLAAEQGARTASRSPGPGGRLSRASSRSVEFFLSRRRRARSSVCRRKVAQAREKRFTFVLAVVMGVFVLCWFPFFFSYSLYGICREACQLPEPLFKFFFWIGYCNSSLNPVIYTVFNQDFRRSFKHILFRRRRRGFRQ
T1 sequence (P19328 whole entry): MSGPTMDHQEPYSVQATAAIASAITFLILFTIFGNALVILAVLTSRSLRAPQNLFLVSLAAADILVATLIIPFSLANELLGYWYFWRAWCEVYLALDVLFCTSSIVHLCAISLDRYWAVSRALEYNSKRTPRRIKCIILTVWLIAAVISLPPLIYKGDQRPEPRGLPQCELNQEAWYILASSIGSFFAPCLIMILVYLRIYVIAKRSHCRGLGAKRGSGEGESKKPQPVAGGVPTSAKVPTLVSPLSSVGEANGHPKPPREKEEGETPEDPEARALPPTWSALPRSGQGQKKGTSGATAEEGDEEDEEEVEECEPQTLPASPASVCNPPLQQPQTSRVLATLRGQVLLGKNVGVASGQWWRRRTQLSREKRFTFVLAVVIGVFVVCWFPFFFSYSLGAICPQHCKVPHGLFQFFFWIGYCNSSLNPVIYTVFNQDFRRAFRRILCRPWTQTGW
T1 sequence (P22909 whole entry): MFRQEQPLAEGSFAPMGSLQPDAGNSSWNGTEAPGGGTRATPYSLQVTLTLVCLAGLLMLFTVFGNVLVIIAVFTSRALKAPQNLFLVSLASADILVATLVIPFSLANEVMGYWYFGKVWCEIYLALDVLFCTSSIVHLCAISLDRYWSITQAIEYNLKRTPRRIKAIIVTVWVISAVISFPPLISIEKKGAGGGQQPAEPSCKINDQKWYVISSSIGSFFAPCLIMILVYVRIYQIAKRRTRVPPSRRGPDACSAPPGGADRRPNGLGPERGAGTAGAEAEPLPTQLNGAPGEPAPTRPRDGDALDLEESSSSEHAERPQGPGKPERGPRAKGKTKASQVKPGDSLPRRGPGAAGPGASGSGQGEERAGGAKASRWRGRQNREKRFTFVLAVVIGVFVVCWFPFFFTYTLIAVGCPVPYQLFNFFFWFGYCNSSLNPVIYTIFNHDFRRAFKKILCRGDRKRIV
Kind of assay: Displacement of [3H]clonidine from Alpha-2 adrenergic receptor of rat brain membranes. Format: cell membranes, Membrane.

On to `COc1cccc(OC)c1OCCNCC1COc2ccccc2O1` (centres undefined), for which the Ki is recorded as 200 nM.
`C[C@H](N)[C@H](O)c1ccc(O)c(O)c1` [LEVONORDEFRIN] showed a Ki of 7.7 nM.
Regarding `c1cc2c(c(NC3=NCCN3)c1)CCCC2` [TRAMAZOLINE], the inhibition constant Ki is on record as 4.2 nM.
Compound `c1ccc(CC2=NCCN2)cc1` [TOLAZOLINE] showed a Ki of 180 nM.
